Tested on: 817829-284-R-J1-PDC complex spheroid viability
Test: Anticancer human tumor 817829-284-R-J1-PDC patient-derived colon adenocarcinoma cell line growth inhibition [POLQ]
Conditions: for IC50: curve of first compound; for viability, T/C: stronger effect = lower value
Method: Multicellular complex tumor spheroid response to Polymerase (POL) inhibitors (novobiocin, ART-558, RP6685) in combination with a variety of drugs and investigational agents in selected tumor cell lines
The POL inhibitors (novobiocin, ART-558, and RP6685) were evaluated both individually and in combination with standard of care and investigational anticancer small molecules within a complex spheroid model of solid tumors. . Complex spheroids include a stromal component modeled by human endothelial cells (HUVEC) and fibroblasts modeled by human mesenchymal stem cells (MSCs). The concentration ranges selected for each drug and investigational agent were based upon clinically achievable concentrations if the clinical Cmax of the agent was known.
Compounds. The drugs and investigational agents: novobiocin (NSC847541), ART-558 (NSC835418), RP-6685 (NSC848927), peposertib (NSC802822), ceralasertib (NSC780249), elimusertib (NSC800525), camonsertib (NSC841442), AZD-1390 (NSC803789), olaparib (NSC753686), talazoparib (NSC767125), rucaparib (NSC756644), sotorasib (NSC818433), MRTX-1133 (NSC836407), SN-38 (NSC673596), topotecan (NSC609699), epotoside (NSC141540), doxorubicin (NSC123127), gemcitabine (NSC613327), 5-fluorouracil (NSC19893), paclitaxel (NSC125973), vemurafenib (NSC761431), MSA-2 (NSC828583), SN-011 (NSC837082), adavosertib (NSC754352), prexasertib (NSC758257), carboplatin (NSC241240) and oxaliplatin (NSC266046), were obtained from the National Cancer Institute (NCI) Developmental Therapeutics Program Chemical Repository (21). The FDA-approved anticancer drug set is available from the Developmental Therapeutics Program at https://dtp.cancer.gov/organization/dscb/obtaining/. […] The stock solutions were prepared in dimethyl sulfoxide (DMSO, Sigma-Aldrich, St. Louis, MO, cat. D2650), except for the platinum compounds which were prepared in saline (Quality Biological, Gaithersburg, MD, cat. 114-055-101), at 800-fold the tested concentration and stored at -70 degrees C prior to their use. All drugs and investigational agents were tested over a range starting from a high concentration at or near the clinical Cmax and decreasing in half-log increments. If the clinical Cmax for an agent had not been determined, the highest concentration tested was 10 microM, except for SN-38, which was tested at a high concentration of 1 microM.
Cell Culture. All cells were maintained in an incubator at 37 degrees C and 5% CO2 with 95% humidity. The PDC lines were cultured according to standard operating procedures established by the NCI PDMR (https://pdmr.cancer.gov). Table 3 of the manuscript, lists the cell lines along with the number of the three cell types plated to form the mct-spheroids and media for tumor cell growth. After thawing, all PDC lines, except 997537-175-T-J1-PDC and 415267-285-R-J2-PDC, were cultured in Matrigel-coated flasks prepared with a working solution of 1X Ham's F-12 nutrient mix, without supplementation (Thermo Fisher Scientific, cat. 11765054), 100 U/mL penicillin-streptomycin (Thermo Fisher Scientific, cat. 15140122), and 2.5% Matrigel (Corning Inc., Corning, NY, cat. 354248) for the first three passages. The two PDC lines 997537-175-T-J1-PDC and 415267-285-R-J2-PDC were cultured on uncoated flasks. The 857933-349-R-J2-PDC line was cultured in 6C/Colon 1B media containing advanced DMEM/F-12 (Thermo Fisher Scientific, cat. 12634028), 10 mM HEPES (Thermo Fisher Scientific, cat. 15630080), 1X GlutaMAX supplement (Thermo Fisher Scientific, cat. 35050061), 0.1 mg/mL primocin (InvivoGen, San Diego, CA, cat. ant-pm-2), 10% defined fetal bovine serum, heat inactivated (HyClone Laboratories Inc., Logan, UT, cat. SH30070.03HI), 50% L-WRN conditioned media (ATCC, cat. CRL-3276), 1.25 mM N-Acetyl-L-cysteine (Sigma-Aldrich, cat. A9165), 10 mM nicotinamide (Sigma-Aldrich, cat. N0636), 1X B-27 supplement (Thermo Fisher Scientific, cat. 17504044), 1X N-2 supplement (Thermo Fisher Scientific, cat. […]

[1] = second compound 0.0316 µM, first compound 0.0316 µM
[2] = second compound 0.0316 µM, first compound 0.1 µM
[3] = second compound 0.0316 µM, first compound 0.316 µM
[4] = second compound 0.0316 µM, first compound 1 µM
[5] = second compound 0.0316 µM, first compound 3.16 µM
[6] = second compound 0.0316 µM, first compound 10 µM
[7] = second compound 0.1 µM, first compound 0.0316 µM
[8] = second compound 0.1 µM, first compound 0.1 µM
[9] = second compound 0.1 µM, first compound 0.316 µM
[10] = second compound 0.1 µM, first compound 1 µM
[11] = second compound 0.1 µM, first compound 3.16 µM
[12] = second compound 0.1 µM, first compound 10 µM
[13] = second compound 0.316 µM, first compound 0.0316 µM
[14] = second compound 0.316 µM, first compound 0.1 µM
[15] = second compound 0.316 µM, first compound 0.316 µM
[16] = second compound 0.316 µM, first compound 1 µM
[17] = second compound 0.316 µM, first compound 3.16 µM
[18] = second compound 0.316 µM, first compound 10 µM
[19] = second compound 1 µM, first compound 0.0316 µM
[20] = second compound 1 µM, first compound 0.1 µM
[21] = second compound 1 µM, first compound 0.316 µM
[22] = second compound 1 µM, first compound 1 µM
[23] = second compound 1 µM, first compound 3.16 µM
[24] = second compound 1 µM, first compound 10 µM
[25] = second compound 3.16 µM, first compound 0.0316 µM
[26] = second compound 3.16 µM, first compound 0.1 µM
[27] = second compound 3.16 µM, first compound 0.316 µM
[28] = second compound 3.16 µM, first compound 1 µM
[29] = second compound 3.16 µM, first compound 3.16 µM
[30] = second compound 3.16 µM, first compound 10 µM
[31] = second compound 10 µM, first compound 0.0316 µM
[32] = second compound 10 µM, first compound 0.1 µM
[33] = second compound 10 µM, first compound 0.316 µM
[34] = second compound 10 µM, first compound 1 µM
[35] = second compound 10 µM, first compound 3.16 µM
[36] = second compound 10 µM, first compound 10 µM
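Further: spheroids exposed to compounds for 7 days.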
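Wherever viability, T/C is given: 100% = DMSO vehicle-treated spheroids.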

CCc1cc2c(N3CCc4c(cc(Cn5ccnc5)cc4-c4cn(C)nc4C(F)(F)F)C3=O)ccnc2c(OC)n1 + Nc1ccc(C#CCN(C(=O)Cc2ncc(C(F)(F)F)cc2C(F)(F)F)c2ccc(F)cc2)nn1
IC50 (second compound 0.0316 µM): 2.59 µM
IC50 (second compound 0.1 µM): 2.41 µM
IC50 (second compound 0.316 µM): 2.61 µM
IC50 (second compound 1 µM): 2.33 µM
IC50 (second compound 3.16 µM): 3.44 µM
IC50 (second compound 10 µM): 2.63 µM
viability, T/C [1]: 84.2%
viability, T/C [2]: 77.9%
viability, T/C [3]: 84.1%
viability, T/C [4]: 76.3%
viability, T/C [5]: 44.5%
viability, T/C [6]: 29.7%
viability, T/C [7]: 83.7%
viability, T/C [8]: 82.7%
viability, T/C [9]: 78.2%
viability, T/C [10]: 67.9%
viability, T/C [11]: 44%
viability, T/C [12]: 37.5%
viability, T/C [13]: 86.3%
viability, T/C [14]: 74.6%
viability, T/C [15]: 64%
viability, T/C [16]: 64.8%
viability, T/C [17]: 49%
viability, T/C [18]: 34%
viability, T/C [19]: 83.6%
viability, T/C [20]: 70.5%
viability, T/C [21]: 74.8%
viability, T/C [22]: 60.7%
viability, T/C [23]: 44.8%
viability, T/C [24]: 31%
viability, T/C [25]: 97.5%
viability, T/C [26]: 95%
viability, T/C [27]: 72.7%
viability, T/C [28]: 68.8%
viability, T/C [29]: 52.1%
viability, T/C [30]: 33.9%
viability, T/C [31]: 83.8%
viability, T/C [32]: 84%
viability, T/C [33]: 69.7%
viability, T/C [34]: 67.3%
viability, T/C [35]: 45.5%
viability, T/C [36]: 31.4%

COc1ccc([C@@H](O)c2cc(-c3ncnc4cc(N5CCOCC5)ccc34)c(F)cc2Cl)nn1 + Nc1ccc(C#CCN(C(=O)Cc2ncc(C(F)(F)F)cc2C(F)(F)F)c2ccc(F)cc2)nn1
IC50 (second compound 0.0316 µM): 1.19 µM
IC50 (second compound 0.1 µM): 0.701 µM
IC50 (second compound 0.316 µM): 1.19 µM
IC50 (second compound 1 µM): 0.925 µM
IC50 (second compound 3.16 µM): 1.12 µM
IC50 (second compound 10 µM): 0.46 µM
viability, T/C [1]: 109%
viability, T/C [2]: 85.4%
viability, T/C [3]: 85%
viability, T/C [4]: 52%
viability, T/C [5]: 28.9%
viability, T/C [6]: 17.7%
viability, T/C [7]: 121%
viability, T/C [8]: 89.8%
viability, T/C [9]: 63.5%
viability, T/C [10]: 42.4%
viability, T/C [11]: 33.9%
viability, T/C [12]: 23.3%
viability, T/C [13]: 96.8%
viability, T/C [14]: 83.2%
viability, T/C [15]: 77.9%
viability, T/C [16]: 55.3%
viability, T/C [17]: 27.9%
viability, T/C [18]: 20.7%
viability, T/C [19]: 98.3%
viability, T/C [20]: 86.8%
viability, T/C [21]: 71.8%
viability, T/C [22]: 46.5%
viability, T/C [23]: 32.1%
viability, T/C [24]: 19.1%
viability, T/C [25]: 103%
viability, T/C [26]: 86%
viability, T/C [27]: 65%
viability, T/C [28]: 55.2%
viability, T/C [29]: 34.2%
viability, T/C [30]: 20.9%
viability, T/C [31]: 106%
viability, T/C [32]: 74.3%
viability, T/C [33]: 56.5%
viability, T/C [34]: 39.1%
viability, T/C [35]: 28.5%
viability, T/C [36]: 16%

Reference: PubChem BioAssay AID1963839 (Molecular Pharmacology Branch, DTP, NCI, 2024)
